Results as given in article PMC7033111, “Rational design of novel benzisoxazole derivatives with acetylcholinesterase inhibitory and serotoninergic 5-HT4 receptors activities for the treatment of Alzheimer’s disease” (Scientific Reports, 2020).
Values joined by “and” are separate entries in the source; they are usually repeats but may differ in a detail not shown here. Identical values can stand only once. Like-named read-outs stand apart in the source and are kept apart here.

What was measured:
[1] = biological target: T1, hAChE (AChE from human erythrocytes) (Homo sapiens, UniProt P22303); experiment: hAChE inhibition, spectrometric Ellman method; format: biochemical; conditions: for inhibition at 1 µM: 10^−6 M compound; for IC50: Ellman method, n = 2
T1 construct: AChE from human erythrocytes; purchased Sigma Aldrich; host or cells: human erythrocytes (tissue-derived enzyme)
Experimental: Inhibitory capacity of compounds on AChE biological activity was evaluated through the use of the spectrometric method of Ellman[39]. Acetylthiocholine and 5,5-dithiobis-(2-nitrobenzoic) acid (DTNB) were purchased from Sigma Aldrich. AChE from human erythrocytes (buffered aqueous solution, ≥500 units/mg protein (BCA), Sigma Aldrich) was diluted in 20 mM HEPES buffer pH 8, 0.1% Triton X-100 such as to have enzyme solution with 0.25 unit/mL enzyme activity. In the procedure, 100 μL of 0.3 mM DTNB dissolved in phosphate buffer pH 7.4 were added into the 96 wells plate followed by 50 μL of test compound solution and 50 μL of enzyme ([…]). After 5 min of preincubation at 25 °C, the reaction was then initiated by the injection of 50 μL of 10 mM acetylthiocholine iodide solution. The hydrolysis of acetylthiocholine was monitored by the formation of yellow 5-thio-2-nitrobenzoate anion as the result of the reaction of DTNB with thiocholine, released by the enzymatic hydrolysis of acetylthiocholine, at a wavelength of 412 nm using a 96-well microplate plate reader (TECAN Infinite M200, Lyon, France). Test compounds were dissolved in analytical grade DMSO. Donepezil was used as a reference standard. The rate of absorbance increase at 412 nm was followed every minute for 10 min. Assays were performed with a blank containing all components except acetylthiocholine, in order to account for non-enzymatic reaction. The reaction slopes were compared and the percent inhibition due to the presence of test compounds was calculated by the following expression: 100 − (vi/v0 × 100) where vi is the rate calculated in the presence of inhibitor and v0 is the enzyme activity.
For the compounds with significant inhibition (≥50%), IC50 values were determined graphically by plotting the % inhibition versus the logarithm of six inhibitor concentrations in the assay solution using the Origin software.

[2] = biological target: T2, human 5-HT4R (5-HT4(b) receptor membranes) (Homo sapiens, UniProt Q13639); experiment: h5-HT4R competition binding with [3H]-GR113808; conditions: for inhibition: 0.2 nM [3H]-GR113808
T2 construct: purchased Millipore HTS110M
Experimental: The competition studies used membrane preparations made from proprietary stable recombinant cell lines expressing the 5-HT4(b) receptor to ensure high-level of GPCR surface expression (HTS110M, Millipore). Membranes (2.5 µg protein) were incubated in duplicate at 25 °C for 60 min in the absence or the presence of 10^–6 or 10^–8M of each drug and 0.2 nM [^3H]-GR 113808 (VT 240, ViTrax) in 25 mM Tris buffer (pH 7.4, 25 °C). At the end of the incubation, homogenates were filtered through Whatman GF/C filters (Alpha Biotech) pre-soaked with 0.5% polyethylenimine using a Brandel cell harvester. Filters were subsequently washed three times with 4 mL of ice-cold 25 mM Tris buffer (pH 7.4, 4 °C). Non-specific binding was evaluated in parallel in the presence of 30 μM serotonin.
For some of these compounds, affinity constants were calculated from five-point inhibition curves using the EBDA-Ligand software and expressed as Ki ± SD[41].

[3] = biological target: T3, HA-tagged human 5-HT4 receptor (Homo sapiens, UniProt Q13639); experiment: cAMP production, agonist mode, transfected COS-7 cells; format: cell-based; conditions: for 5-HT4 pharmacological profile (agonism assay): cAMP production, COS-7 cells; for Log(EC50): given as Log(EC50)
T3 construct: HA; expressed in transfected cells; host or cells: COS-7 cells (ATCC CRL-1651), transient transfection
Source text: (§1) Figure 5 Determination of the 5-HT4 pharmacological profiles for compounds 16, 32a and 33 by quantification of cAMP production. (A) Assay to determine the agonism activity (with serotonin and the partial agonist RS-67333 as references). (B) Assay to determine the antagonism activity (with the antagonist GR113808 as reference). Data presented are the mean of three independent experiments performed in duplicate.
(§2) COS-7 cells were purchased from ATCC (ATCC CRL-1651; LGC […], Molsheim, France). T were grown in Dulbecco’s modified Eagle medium (DMEM) supplemented with 10% dialyzed fetal calf serum (dFCS) and antibiotics. Cells were transiently transfected with plasmid encoding HA-tagged human 5-HT4 receptor, then seeded in 96-well plates (35,000 cells/well). 24 hrs after transfection, cells were washed once with 200 µl of HBS (20 mM HEPES; 150 mM NaCl; 4.2 mM KCl; 0.9 mM CaCl2; 0.5 mM MgCl2; 0.1% glucose; 0.1% BSA) and, after HBS removal, exposed to the indicated concentrations of 5-HT4R ligands in the presence of 0.1 mM of the phosphodiesterase inhibitor RO-20-1724, at 37 °C in 100 µl of HBS. After 10 min, cells were then lysed by addition of the same volume of Triton-X100 (0.1%) during 30 min at 37 °C. The competition assay in antagonist mode was performed as follows: after one wash in 200 µl of HBS, cells were exposed to 5-HT4R ligands at twice the indicated concentration, at 37 °C in 50 µl of HBS. After 7 min, serotonin (final concentration of 5.10^−7M) was added in 50 µl of HBS in the presence of the phosphodiesterase inhibitor RO-20-1724 (final concentration of 0.1 mM). After 10 min, cells were then lysed by addition of the same volume of Triton-X100 (0.1%) during 30 min at 37 °C. Quantification of cAMP production was performed by HTRF by using the cAMP Dynamic kit (Cisbio Bioassays) according to the manufacturer’s instructions

[4] = biological target: T3, HA-tagged human 5-HT4 receptor; experiment: cAMP production, competition assay in antagonist mode vs serotonin, transfected COS-7 cells; format: cell-based; conditions: for 5-HT4 pharmacological profile (antagonism assay): cAMP production
Source text: as §1, §2

5-HT4dR = conditions: cited from earlier work
AChE = conditions: read-out: AChE IC50; cited from earlier work
[5] = design: method as in PMID 8064800; conditions: mouse; cited from earlier work
BuChE = system: BuChE; design: method as in PMID 8064800; conditions: cited from earlier work
[6] = design: method as in PMID 8064800; conditions: cited from earlier work
[7] = 10^−6 M compound, read-out: h5-HT4R % inhibition at 10^−6 M (converted)
[8] = 10^−8 M compound, read-out: h5-HT4R % inhibition at 10^−8 M (converted)
[9] = agonist mode, individual experiments HP5, HP6, HP7
[10] = IC50 (5-HT4R antagonist, cAMP production), COS-7 cells, serotonin 5.10^−7 M, mean of three experiments
[11] = antagonist mode, individual experiments HP8, HP10, HP11

T2 sequence (Q13639 whole entry): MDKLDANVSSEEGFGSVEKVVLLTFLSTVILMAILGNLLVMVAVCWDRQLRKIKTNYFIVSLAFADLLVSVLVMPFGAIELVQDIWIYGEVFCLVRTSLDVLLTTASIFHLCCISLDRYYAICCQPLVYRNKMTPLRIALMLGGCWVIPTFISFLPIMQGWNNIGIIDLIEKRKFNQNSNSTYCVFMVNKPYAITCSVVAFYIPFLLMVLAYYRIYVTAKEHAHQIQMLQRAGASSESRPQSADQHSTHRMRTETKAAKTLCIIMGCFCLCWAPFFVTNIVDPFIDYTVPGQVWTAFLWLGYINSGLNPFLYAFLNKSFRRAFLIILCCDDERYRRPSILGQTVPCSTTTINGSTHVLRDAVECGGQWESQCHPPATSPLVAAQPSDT
T3 sequence (Q13639 whole entry): as above
T1 sequence (P22303 other isoform, or with tags, fused parts or gaps): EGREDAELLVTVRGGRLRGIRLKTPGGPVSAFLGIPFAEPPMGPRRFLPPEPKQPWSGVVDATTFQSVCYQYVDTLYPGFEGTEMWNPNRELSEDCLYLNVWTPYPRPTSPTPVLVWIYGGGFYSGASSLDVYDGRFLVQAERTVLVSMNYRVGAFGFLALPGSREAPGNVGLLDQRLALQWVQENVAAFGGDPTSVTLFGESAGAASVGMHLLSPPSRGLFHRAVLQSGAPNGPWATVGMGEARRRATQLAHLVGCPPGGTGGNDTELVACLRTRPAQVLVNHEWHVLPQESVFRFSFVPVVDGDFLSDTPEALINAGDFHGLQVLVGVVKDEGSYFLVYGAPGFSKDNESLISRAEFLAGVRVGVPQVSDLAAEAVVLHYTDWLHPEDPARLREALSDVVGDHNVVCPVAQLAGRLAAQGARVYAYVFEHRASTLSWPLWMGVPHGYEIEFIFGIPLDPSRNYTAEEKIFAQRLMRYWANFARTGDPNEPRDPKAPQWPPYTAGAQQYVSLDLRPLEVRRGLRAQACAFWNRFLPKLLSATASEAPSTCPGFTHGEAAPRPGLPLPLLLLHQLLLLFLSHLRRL

With CC(C)COc1cccc2onc(CCC3CCN(CC4CCCCC4)CC3)c12 [Compound 32c] the inhibition at 1 µM [1] was 42%, the “inhibition of the enzyme (AChE), in words” value ([1]; statement in discussion) was “without AChE inhibition” and the Ki [2] was 219 ± 65 nM. The inhibition [2, 7] was 100% and the inhibition [2, 8] was 4%.

Compound CCOc1cccc2onc(CCC3CCN(CC4CCCCC4)CC3)c12 [Compound 32b] has an inhibition at 1 µM [1] of 87%, an IC50 [1] of 200 ± 32 nM and a Ki [2] of 80.5 ± 9.9 nM. It also gave an inhibition [2, 7] of 100% and an inhibition [2, 8] of 16%.

In the case of COc1cccc2onc(CCC3CCN(CC4CCCCC4)CC3)c12 [Compound 32a, 3-[2-[1-(cyclohexylmethyl)-4-piperidyl]ethyl]-4-methoxy-1,2-benzoxazole], the EC50 ([3]; EC50, agonist mode, Moy. (mean of HP5-HP7), unit inferred) is reported as 11300 nM, the EC50 ([3]; EC50, agonist mode, individual experiments HP5, HP6, HP7, unit inferred) is reported as 13600 nM and 20300 nM and the “Top AMPc” value ([3]; agonist mode, Moy.) is reported as 22%. For the same compound, the “Top AMPc” value [3, 9] was 29.36% and 12.83% and 24.95%, the “5-HT4 pharmacological profile (agonism assay)” value [3] was “not agonist” and the inhibition at 1 µM [1] was 94%. The IC50 [1] was 63.5 ± 19.2 nM, the Ki [2] was 59 ± 8.5 nM and the inhibition [2, 7] was 100%. The inhibition [2, 8] was 13%, the IC50 [4, 10] was 97.2 ± 17.2 nM and the IC50 ([4]; IC50, antagonist mode, individual experiments HP8, HP10, HP11, unit inferred) was 129 nM and 69.5 nM and 93.6 nM. The IC50 ([4]; Log(IC50), antagonist mode, Moy., printed as Log(IC50), negative) was 100 nM, the “Bott. AMPc” value ([4]; antagonist mode, Moy.) was 33% and the “Bott. AMPc” value [4, 11] was 38.80% and 27.69% and 32.50%. For the same compound, the “5-HT4 pharmacological profile (antagonism assay)” value ([4]; COS-7 cells) was “antagonists”.

In the case of OC1(CN2CCC(COc3noc4cccc(O[C@@H]5CCOC5)c34)CC2)CCOCC1 [[A]], the “5-HT4dR Emax” value (5-HT4dR) is given as 24% and the EC50 (5-HT4dR) is given as 0.2 nM.

In the case of CC(=O)Nc1ccc2c(CCC3CCN(Cc4ccccc4)CC3)noc2c1 [[B]], the IC50 (AChE) is listed as 2.8 nM, the “effect on amnesia, passive avoidance model” value [5] is listed as “reversion of amnesia” and the IC50 (BuChE) is listed as 9000 nM. For the same compound, the “ratio BuAChE/AChE” value (BuChE; selectivity ratio) was 3200 and the “elevation of ACh in mouse” value [6] was “dose-dependent elevation of ACh”.

For Oc1cccc2onc(CCC3CCN(CC4CCCCC4)CC3)c12 [Compound 33], the “Top AMPc” value ([3]; agonist mode, Moy.) was -3%, the EC50 ([3]; agonist mode, Moy. (mean of HP5-HP7), unit not given) was “ns” and the “Log(EC50)” value ([3]; agonist mode, Moy., negative) was “ns”. The “Top AMPc” value [3, 9] was -15.21% and 4.96% and 0.00%, the “Log(EC50)” value [3, 9] was “ns” and the EC50 ([3]; agonist mode, individual experiments HP5, HP6, HP7, unit not given) was “ns”. For the same compound, the “5-HT4 pharmacological profile (agonism assay)” value [3] was “not agonist”, the inhibition at 1 µM [1] was 87% and the IC50 [1] was 97.3 ± 1.5 nM. The Ki [2] was 37 ± 10.5 nM, the inhibition [2, 7] was 100% and the inhibition [2, 8] was 29%. The IC50 [4, 10] was 883 ± 598 nM, the “Bott. AMPc” value ([4]; antagonist mode, Moy.) was 44% and the “Bott. AMPc” value [4, 11] was 50.44% and 46.43% and 34.27%. The “5-HT4 pharmacological profile (antagonism assay)” value ([4]; COS-7 cells) was “antagonists”.

Work on CC(C)CN1CCC(CCc2noc3ccccc23)CC1 [Compound 23] yielded an inhibition at 1 µM [1] of 11%, an inhibition [2, 7] of 87% and an inhibition [2, 8] of 8%.

c1ccc(COc2cccc3onc(CCC4CCN(CC5CCCCC5)CC4)c23)cc1 [Compound 32e] showed an inhibition at 1 µM [1] of 10%, a Ki [2] of 2920 ± 781 nM and an inhibition [2, 7] of 96%. The inhibition [2, 8] was 0%.

For c1ccc2c(OCC3CCN(CC4CCCCC4)CC3)noc2c1 [Compound 11, 3-[[1-(cyclohexylmethyl)-4-piperidyl]methoxy]-1,2-benzoxazole], the inhibition at 1 µM [1] was 24%, the Ki [2] was 9.6 ± 1.6 nM and the inhibition [2, 7] was 100%. For the same compound, the inhibition [2, 8] was 67%.
